Test results taken from US7939558B2, “Compounds having activity in increasing ion transport by mutant-CFTR and uses thereof” (The Regents of the University of California, priority 2004, dated 2011).

Key:
[1] = system: intracellular cAMP; assay: cAMP enzymatic immunoassay of FRT cell lysates; type: cell-based, rat; settings: compounds 2 μM, 10 minutes, forskolin 0.5 μM
Protocol: cAMP activity was measured using the BIOTRAK enzymatic immunoassay (Amersham) of FRT cell lysates after incubation with the compounds for 10 minutes in the presence of 0.5 μM forskolin.
An analysis of compound specificity was also performed.

[2] = target: T1, ΔF508-CFTR (Homo sapiens, UniProt P13569, DEL508-508); assay: Short-circuit (apical membrane Cl−) current in FRT cells expressing ΔF508-CFTR, Ussing chamber; type: cell-based; set-up: expressed in transfected cells; settings: for EC50 / maximal current compared with genistein: after forskolin 20 μM; for EC50: 27° C. 24 hours, read-out: potency for ΔF508-CFTR currents; for maximal current compared with genistein: genistein 50 μM; for potentiation of the response of ΔF508-CFTR to forskolin: low concentrations of forskolin, potentiator 100 nM
Protocol: (§1) Clonal populations of Fischer rat thyroid (FRT) epithelial cells stably co-expressing human ΔF508-CFTR and the high-sensitivity halide-sensing green fluorescent analog YFP-H148Q/I152L (Galietta et al., A.S. (2001) FEBS Lett. 499, 220-224) were generated by liposome transfection and limiting dilution with Zeocin/G418 selection. More than 100 clones were evaluated for high fluorescence and ΔF508-CFTR plasma membrane targeting after growth at 27° C. for 24 hours. For screening, cells were cultured on plastic in Coon's modified F12 medium supplemented with 10% fetal bovine serum, 2 mM L-glutamine, 100 U/ml penicillin, and 100 μg/ml streptomycin, and plated on black 96-well microplates (Corning-Costar 3904) at 30,000 cells/well. For short-circuit measurements cells were cultured on Snapwell permeable supports (Corning-Costar) at 500,000 cells/insert. Human nasal epithelium cells from CF patients were cultured on Snapwell inserts and allowed to differentiate in a hormone-supplemented medium (Galietta et al., Am. J. Physiol., […]). Some measurements were done using stably transfected FRT cells expressing YFP-H148Q and wildtype- or G551D-CFTR (Galietta et al., (2001) J. Biol. Chem. 276, 19723-19728). Patch clamp experiments were done on ΔF508-CFTR-expressing FRT cells plated in 35-mm Petri dishes.
Using chamber experiments were performed 7-9 days after plating ΔF508-CFTR expressing FRT cells on Snapwell inserts. The basolateral solution contained (in mM): 130 NaCl, 2.7 KCl, 1.5 KH2PO4, 1 CaCl2, 0.5 MgCl2, 10 glucose, 10 Na-Hepes (pH 7.3). In the apical bathing solution 65 mM NaCl was replaced by Na gluconate, and CaCl2 was increased to 2 mM. Solutions were bubbled with air and maintained at 37° C. The basolateral membrane was permeabilized with 250 μg/ml amphotericin B. The hemichambers were connected to a DVC-1000 voltage clamp (World Precision Instruments) via Ag/AgCl electrodes and 1 M KCl agar bridges for recording short-circuit current.
Experiments were done after basolateral membrane permeabilization and in the presence of a transepithelial Cl^− gradient, so that short-circuit current represents apical membrane Cl^− current. […] Cells were plated on a permeable support to generate a polarized epithelium, cultured for 5-7 days, and then incubated at 27° C. for 24 hours. Transepithelial chloride current was measured in a modified Ussing chamber in the presence of a chloride gradient.

[3] = target: T1, ΔF508-CFTR; assay: Fluorescence (YFP-H148Q/I152L) I− influx assay of ΔF508-CFTR potentiator activity in FRT cells; type: cell-based; set-up: expressed in transfected cells; settings: 27° C. 24 h, forskolin 20 μM, read-out: Ka
Protocol: as §1
Screening was carried out using a Beckman integrated system containing a 3-meter robotic arm, CO2 incubator containing microplate carousel, plate-washer, liquid handling workstation, bar code reader, delidding station, plate sealer, and two FluoStar fluorescence plate readers (Galaxy, BMG Lab Technologies), each equipped with dual syringe pumps and HQ500/20X ([…]) excitation and HQ535/30M (535±15 nm) emission filters (Chroma). Software was written in VBA (Visual Basic for Applications) to compute baseline-subtracted fluorescence slopes (giving halide influx rates).
For assay of ΔF508-CFTR potentiator activity the incubator (27° C., 90% humidity, 5% CO2/95% air) was loaded with forty-to-sixty 96-well plates containing FRT cells. After an 18-24 hour incubation plates were washed 3 times with PBS (300 μl/wash) leaving 50 μl PBS. 10 μl of PBS containing 120 μM forskolin was added, and after 5 min test compounds (0.6 μl of 0.25 mM DMSO solution) were added to each well to give 2.5 μM final compound concentrations. After 15 min, 96-well plates were transferred to a plate reader for fluorescence assay. Each well was assayed individually for I^− influx by recording fluorescence continuously (200 ms per point) for 2 seconds (baseline) and then for 12 seconds after rapid (<1 s) addition of 160 μL of isosmolar PBS in which 137 mM Cl^− was replaced by I^−. I^− influx rates were computed from initial fluorescence versus time-curve slopes (determined by 3rd order polynomial regression) after normalization for total fluorescence (background subtracted initial fluorescence). All compound plates contained negative control (DMSO vehicle alone) and positive controls (genistein, 5 μM and 50 μM). Assay analysis indicated a Z′-factor of >0.7 (Zhang et al., J. Biomol. Screen 4:67-73 (1999)).
The high-throughput screen was designed to identify compounds that activated ΔF508-CFTR when expressed at the cell plasma membrane. FRT epithelial cells co-expressing ΔF508-CFTR and a high sensitivity yellow fluorescent protein-based halide indicator were incubated at 27° C. for 24 h to permit ΔF508-CFTR plasma membrane targeting (FIG. 1, panel A). After washing, forskolin (20 μM) and test compounds (2.5 μM) were added to individual wells of 96-well plates. The I^− influx assay was carried out ˜15 min later by measurement of the time course of decreasing YFP fluorescence after creation of an inwardly-directed I^− gradient. A high concentration of forskolin was used to identify ΔF508-CFTR potentiators that may interact directly with ΔF508-CFTR rather than alter cAMP concentration. […]

T1 sequence (P13569 with tags, fused parts or gaps DEL508-508): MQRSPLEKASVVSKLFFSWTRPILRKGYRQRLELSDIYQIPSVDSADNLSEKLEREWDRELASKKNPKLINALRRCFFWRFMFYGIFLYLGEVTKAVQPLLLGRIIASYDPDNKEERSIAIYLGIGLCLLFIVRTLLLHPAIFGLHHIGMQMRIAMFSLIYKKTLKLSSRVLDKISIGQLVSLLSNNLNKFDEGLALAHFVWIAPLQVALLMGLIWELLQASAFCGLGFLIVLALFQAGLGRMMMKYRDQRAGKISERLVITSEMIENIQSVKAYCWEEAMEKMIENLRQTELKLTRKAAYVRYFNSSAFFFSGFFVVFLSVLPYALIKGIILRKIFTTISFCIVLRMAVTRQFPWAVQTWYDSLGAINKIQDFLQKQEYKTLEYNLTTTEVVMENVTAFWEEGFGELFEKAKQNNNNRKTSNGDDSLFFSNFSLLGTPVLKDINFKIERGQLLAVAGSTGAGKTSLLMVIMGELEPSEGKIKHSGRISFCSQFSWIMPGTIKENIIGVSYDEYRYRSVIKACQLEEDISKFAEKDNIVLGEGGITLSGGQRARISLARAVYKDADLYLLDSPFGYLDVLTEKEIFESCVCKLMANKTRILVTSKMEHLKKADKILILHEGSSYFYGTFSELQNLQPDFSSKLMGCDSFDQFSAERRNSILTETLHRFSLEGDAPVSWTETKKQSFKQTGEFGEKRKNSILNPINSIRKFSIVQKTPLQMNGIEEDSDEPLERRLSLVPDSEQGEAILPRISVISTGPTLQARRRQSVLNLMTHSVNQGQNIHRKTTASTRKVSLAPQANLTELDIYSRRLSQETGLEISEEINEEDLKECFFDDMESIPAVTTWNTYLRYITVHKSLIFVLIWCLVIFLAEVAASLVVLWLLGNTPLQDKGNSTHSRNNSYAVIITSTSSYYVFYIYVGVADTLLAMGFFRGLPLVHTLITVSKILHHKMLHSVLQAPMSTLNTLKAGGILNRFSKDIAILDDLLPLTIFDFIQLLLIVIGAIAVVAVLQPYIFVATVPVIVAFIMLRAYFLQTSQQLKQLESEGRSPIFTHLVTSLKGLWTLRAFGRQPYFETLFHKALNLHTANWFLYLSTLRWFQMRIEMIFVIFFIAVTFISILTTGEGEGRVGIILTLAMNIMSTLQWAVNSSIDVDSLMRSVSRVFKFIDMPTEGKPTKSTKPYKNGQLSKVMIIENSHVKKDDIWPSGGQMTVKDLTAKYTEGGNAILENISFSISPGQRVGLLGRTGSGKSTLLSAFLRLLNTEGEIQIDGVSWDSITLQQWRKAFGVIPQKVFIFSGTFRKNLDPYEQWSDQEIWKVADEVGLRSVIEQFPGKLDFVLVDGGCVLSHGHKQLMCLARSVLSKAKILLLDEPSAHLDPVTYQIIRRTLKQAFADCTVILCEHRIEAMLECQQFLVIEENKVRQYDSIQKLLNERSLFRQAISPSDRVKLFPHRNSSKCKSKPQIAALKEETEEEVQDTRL

Compound	cAMP level [1]	EC50 [2] [µM]	maximal current compared with genistein [2]	potentiation of the response of ΔF508-CFTR to forskolin [2]	EC50 ([3]; phenylglycine containing compounds) [µM]	EC50 ([3]; sulfonamide containing compounds) [µM]
CC(C)c1ccc(NC(=O)C(c2ccccc2)N(C)C(=O)Cc2c[nH]c3ccccc23)cc1 (stereo not shown) [Compound P-1, 2-[(2-1H-Indol-3-yl-acetyl)-methyl-amino]-N-(4-isopropyl-phenyl)-2-phenyl-acetamide]	did not increase cAMP above the level induced by forskolin	< 0.1	comparable to or greater than that produced by 50 μM genistein	significant increase in current induced by low concentrations of forskolin	0.3	
C=CCNC(=O)c1c[nH]c2ccc(S(=O)(=O)N(C)c3ccccc3OCC)cc2c1=O [Compound S-1, 6-[(2-Ethoxy-phenyl)-methyl-sulfamoyl]-4-oxo-1,4-dihydro-quinoline-3-carboxylic acid allylamide]	did not increase cAMP above the level induced by forskolin	< 0.1	comparable to or greater than that produced by 50 μM genistein	significant increase in current induced by low concentrations of forskolin		0.3
